{
  "source": "patent US20180263940A1",
  "about": "“TREATMENT OF SKIN CONDITIONS” (priority 2015, published 2018)",
  "key": {"[1]": {"tested_on": "E16.5 embryonic back skin (Abca12 Lx12/Lx12 and Lx12/+)", "assay": "Harlequin Ichthyosis ex vivo embryo whole mount skin assay, cornified envelope thickening", "type": "cell-based, mouse", "conditions": "10 mM Mesalamine or 1 uM Acitretin, 4 days ex vivo", "protocol": "Embryonic back skin was collected at E16.5 from across 3 litters generated by Abca12 Lx12/+ cross Abca12 Lx12/+ matings to generate Harlequin Ichthyosis embryos Abca12 Lx12/Lx12 and control siblings Abca12 Lx12/+ and Abca12+/+. The embryonic skin was then cultured 4 days on a porous membrane chamber insert with the epidermis exposed to air and dermis side in contact with media drawn through the porous membrane to permit maturation and adaptation to air. 10 mM Mesalamine or 1 uM Acitretin was supplied in the culture media and media refreshed at 48 hrs. Vehicle samples were left without drug treatment. Skins were then harvested on the 4th day and fixed in 4% PFA for 3-4 hrs then stored in 80% Ethanol until processed and embedded in paraffin wax. 8 micron sections were then cut and stained with Haematoxylin and Eosin and analysed. The percentage of skin thickness accounted for by the cornified envelope (cornified layer) was measured and results normalised as a fold change over the vehicle-treated control siblings in each assay. Wild type siblings were under represented in these litters so phenotypically normal heterozygote siblings were used as controls."}, "[2]": {"tested_on": "naturally parakeratotic tail scale skin", "assay": "Ex vivo mouse tail scale assay", "type": "cell-based", "conditions": "4 days ex vivo", "protocol": "7-9 week old wild type mice of either gender were sacrificed and the tail skin tissue harvested then cultured 4 days on a porous membrane chamber insert with the epidermis exposed to air and dermis side in contact with media drawn through the porous membrane. Various concentrations and combinations of Mesalamine (2 mM and 5 mM) and Acitretin (1 μM) were added to the media or media alone used as a control. Media was refreshed after 48 hrs. Skins were then harvested on the 4 th day and fixed in 4% PFA overnight then stored in 80% Ethanol until processed and embedded in paraffin wax. 8 micron sections were then cut and stained with Haematoxylin and Eosin and analysed. Images were taken from at least 10 scales from 3 mice per treatment condition and the % orthokeratosis measured as defined in the figure legend for FIG. 13."}, "[3]": {"tested_on": "E16.5 embryonic mouse dorsal skin (Lx12/Lx12 HI mutant, Lx12/+, +/+)", "assay": "Ex vivo chamber assay of E16.5 embryonic mouse dorsal skin during Harlequin Ichthyosis (HI) disease acquisition, H&E and immunofluorescent staining", "type": "cell-based", "excerpt": "The mouse strain ‘Abca12^tm1Lex’ NIH-0129 was obtained from Lexicon genetics and are referred to herein as Abca12Lx12/Lx12, or simply Lx12/Lx12, mice. These mice have a puromycin selection cassette-mediated exon 8 disruption and recapitulate the features of HI akin to other Abca12 mutant strains. All animal procedures complied with standards set under Australian guidelines for animal welfare and experiments were subject to Monash University animal welfare ethics review panels.\nAnti-cleaved caspase 3 (#9664P) 1:100 (IHC) Cell Signalling Technologies, USA. Anti-filaggrin (PRB-417P) 1: 1000 (IHC) Covance, USA. Anti-involucrin (PRB-140C) 1: 1000 (IHC) Covance, USA. Antikeratin 10 (PRB-159P) 1: 500 (IHC) Covance, USA. Antikeratin 10 (sc-23877) 1: 100 (IHC) Santa Cruz Biotechnology USA. Anti-keratin 14 (LL002) (ab7800) 1: 250-1000 (IHC) Abcam, UK. Anti-loricrin (PRB-145P) 1: 1000 (IHC) Covance, USA. Molecular Probes AlexaFluor A488 and 555 secondary antibodies raised in Donkey, against rabbit or mouse, were used at 1: 600, from Life Technologies. Nuclei stains used included DAPI (Sigma-Aldrich) 1: 1000. DAB staining was performed by the Monash Histology Platform using Leica autostainers and Dako products.\nThe ability of mesalamine to rescue the impaired differentiation in an HI mouse model, which represents an extremely severe inflammatory skin disease, was tested. Embryonic back skins at E16.5 were harvested from a litter containing wild type, heterozygous and HI embryos. The skin was divided into two pieces and each cultured for 4 days in a standard ex vivo chamber assay, where the skin rests dermis-side down on a chamber insert membrane and draws cell culture media up from the below well, forming an air face on the epidermis side and liquid face for the dermal side, similar to the normal skin environment. Mesalamine was added in the media of one of each pair of skins at 10 mM (the active concentration determined to have most impact in the gut for intestinal diseases)."}, "[4]": {"tested_on": "E18.5 embryonic mouse dorsal skin (Lx12/Lx12 HI mutant, Lx12/+, +/+)", "assay": "Ex vivo chamber assay of E18.5 embryonic mouse dorsal skin after HI disease acquisition, H&E", "type": "cell-based", "conditions": "4 days ex vivo", "protocol": "Representative Haematoxylin and Eosin staining of embryonic mouse dorsal skin from two E18.5 litters, cultured ex vivo for 4 days on chamber inserts, with 1 or 10 mM mesalamine in standard culture media or vehicle alone is shown in FIG. 9. +/+ presents wild type skin. Lx12/Lx12 represents the HI mutant skin and Lx12/+ represents seemingly normal skin carrying the recessive HI mutant allele. Note once again the abnormality observed in the spinous layer, loss of the granular layer and proportional thickening of the stratum corneum in Lx12/Lx12 (HI) vehicle treated skins. Lx12/+ skins also appeared slightly abnormal relative to +/+ vehicle treated skins. […] Images are repeated in grayscale."}, "[5]": {"tested_on": "E16.5 embryonic mouse dorsal skin (Lx12/Lx12 HI mutant, Lx12/+, +/+)", "assay": "Ex vivo chamber assay of E16.5 embryonic mouse dorsal skin during Harlequin Ichthyosis (HI) disease acquisition, H&E and immunofluorescent staining", "type": "cell-based", "conditions": "second E16.5 litter, 1 or 10 mM, 4 days ex vivo"}, "GRHL3 −/− epidermis": {"tested_on": "GRHL3 −/− epidermis", "assay": "Ex vivo whole mount assay of GRHL3 -/- skin (proxy model of Lamellar Ichthyosis), cornified layer thickness", "type": "cell-based, mouse", "conditions": "E16.5, 10 mM, 4 days ex vivo", "protocol": "Embryonic back skin was collected at E16.5 from litters generated by GRHL3+/− cross Abca12 GRHL3+/− matings to generate Ichthyosis embryos GRHL3 −/− and control siblings GRHL3+/− and GRHL3+/+. The embryonic skin was then cultured 4 days on a porous membrane chamber insert with the epidermis exposed to air and dermis side in contact with media drawn through the porous membrane to permit maturation and adaptation to air. Skins were then harvested and fixed in 4% PFA for 3-4 hrs then stored in 80% Ethanol until processed and embedded in paraffin wax. 8 micron sections were then cut and stained with Haematoxylin and Eosin and analysed."}, "[6]": {"conditions": "Harlequin Ichthyosis (Lx12/Lx12) skins"}, "[7]": {"conditions": "control heterozygous Lx12/+ skins"}, "[8]": {"conditions": "Lx12/+ skin, 10 mM, 4 days ex vivo"}, "[9]": {"conditions": "Lx12/Lx12 skin, 10 mM, 4 days ex vivo"}},
  "note": "Entries after “also recorded” stand apart in the source; their conditions may differ.",
  "data": [
    {"smiles": "COc1cc(C)c(/C=C/C(C)=C/C=C/C(C)=C/C(=O)O)c(C)c1C", "note": "[Acitretin]", "values": [
      {"measurement": "Cornified layer proportion of skin thickness", "setting": "[1]; [6]", "value": "no significant effect"},
      {"measurement": "Cornified layer proportion of skin thickness", "setting": "[1]; [7]", "value": "no significant effect"},
      {"measurement": "Orthokeratosis", "setting": "[2]; 1 μM Acitretin", "value": "promoted orthokeratosis"}
    ]},
    {"smiles": "Nc1ccc(O)c(C(=O)O)c1", "note": "[Mesalamine, 5-aminosalicylic acid]", "values": [
      {"measurement": "Skin differentiation defects in HI", "setting": "[3]; 10 mM in media, pair matched skins across genotypes", "value": "significantly rescued"},
      {"measurement": "Epidermis morphology (Haematoxylin and Eosin)", "setting": "[3]; +/+ wild type skin, 10 mM, 4 days ex vivo", "value": "did not however appear to greatly effect"},
      {"measurement": "Apoptosis (cleaved-Caspase-3 positive cells)", "setting": "[3]; Lx12/+ and Lx12/Lx12 skin, 10 mM, 4 days ex vivo", "value": "apoptosis is reduced"},
      {"measurement": "Granular layer Filaggrin (FLG)", "setting": "[3]; [8]", "value": "restored"},
      {"measurement": "Keratin 10 (K10) positive keratinocytes", "setting": "[3]; [8]", "value": "revert to normal levels"},
      {"measurement": "Epidermis morphology (Haematoxylin and Eosin)", "setting": "[3]; Lx12/Lx12 (HI) skin, 10 mM, 4 days ex vivo", "value": "acquires a more-normal appearance"},
      {"measurement": "Granular layer Filaggrin (FLG)", "setting": "[3]; [9]", "value": "partially restored"},
      {"measurement": "Involucrin (INV) expression", "setting": "[3]; [9]", "value": "a more organised, and delayed (granular layer) expression"},
      {"measurement": "Keratin 10 (K10) positive keratinocytes", "setting": "[3]; [9]", "value": "some modest improvement"},
      {"measurement": "Loricrin (LOR) expression", "setting": "[3]; [9]", "value": "a more normal, predominantly granular layer expression"},
      {"measurement": "Epidermis morphology (Haematoxylin and Eosin)", "setting": "[4]; Lx12/Lx12 (HI) skin, E18.5, 1 mM", "value": "acquires a more-normal appearance"},
      {"measurement": "Epidermis morphology (Haematoxylin and Eosin)", "setting": "[4]; all genotypes, E18.5, 10 mM", "value": "reducing the keratinocytes accumulating in the spinous layers"},
      {"measurement": "Cornified layer proportion of skin thickness", "setting": "[1]; [6]", "value": "reduced the cornified layer proportion to vehicle control levels"},
      {"measurement": "Cornified layer proportion of skin thickness", "setting": "[1]; [7]", "value": "reduced the thickness"},
      {"measurement": "Epidermis morphology (Haematoxylin and Eosin)", "setting": "[5]", "value": "acquires a more-normal appearance"},
      {"measurement": "Cornified layer thickening", "setting": "GRHL3 −/− epidermis", "value": "reduced hyper-thickening of the cornified layer; also recorded: loss of thickening"},
      {"measurement": "Orthokeratosis compared with 1 μM Acitretin", "setting": "[2]; 2 mM Mesalamine", "value": "performing similarly to 1 μM Acitretin"},
      {"measurement": "Orthokeratosis", "setting": "[2]; 2 mM and 5 mM Mesalamine in the culture medium", "value": "dose dependent increase in orthokeratosis"}
    ]}
  ]
}
